Earlier results on one molecule are cited in patent US20250163027A1, “GPR88-RECEPTOR-AGONIST” (Boehringer Ingelheim International GmbH, priority 2023, published 2025).

pEC50: −log10 of the molar value.

The target in the data set is hGPR88 receptor (Homo sapiens, UniProt Q9GZN0). Conditions: value marked * : cAMP assay, not BRET. Background: Changes in cAMP serve as a functional read-out for many G protein-coupled receptors.
Sequence of hGPR88 receptor (Q9GZN0 whole entry): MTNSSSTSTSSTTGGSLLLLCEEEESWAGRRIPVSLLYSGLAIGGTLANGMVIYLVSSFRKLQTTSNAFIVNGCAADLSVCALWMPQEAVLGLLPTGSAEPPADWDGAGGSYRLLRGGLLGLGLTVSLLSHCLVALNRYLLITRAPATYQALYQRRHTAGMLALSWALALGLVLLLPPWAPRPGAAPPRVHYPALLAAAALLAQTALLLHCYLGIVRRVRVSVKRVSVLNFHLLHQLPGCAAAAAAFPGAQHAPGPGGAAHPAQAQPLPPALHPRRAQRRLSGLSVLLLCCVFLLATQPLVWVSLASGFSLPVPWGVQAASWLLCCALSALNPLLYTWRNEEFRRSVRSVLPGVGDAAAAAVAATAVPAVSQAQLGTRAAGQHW

By pEC50 is commonly meant the negative decadic logarithm of the EC50, by convention in mol/L. Consider `COCc1ccc(-c2ccc(N(CC(C)(C)O)C(=O)C3CC3c3ccccn3)cc2)cc1` (stereo not shown) [Ex 141 in WO2022/129933], for which the pEC50 was below 5.30.
